According to patent US12643895B2, “Heteroaryl-substituted pyrazolo-pyridine protein kinase inhibitors for promoting liver regeneration or reducing or preventing hepatocyte death” (HepaRegeniX GmbH, priority 2019, dated 2026):

Legend:
Type in all cases: biochemical
BRaf = target: T1, BRaf (Homo sapiens, UniProt P15056); experiment: 33PanQinase radiometric kinase assay, BRaf (off-target); conditions: ratio IC50(off-target)/IC50(MKK4)
T1 construct: purchased ProQinase GmbH, Freiburg, Germany (assay service)
T1 sequence (P15056 whole entry): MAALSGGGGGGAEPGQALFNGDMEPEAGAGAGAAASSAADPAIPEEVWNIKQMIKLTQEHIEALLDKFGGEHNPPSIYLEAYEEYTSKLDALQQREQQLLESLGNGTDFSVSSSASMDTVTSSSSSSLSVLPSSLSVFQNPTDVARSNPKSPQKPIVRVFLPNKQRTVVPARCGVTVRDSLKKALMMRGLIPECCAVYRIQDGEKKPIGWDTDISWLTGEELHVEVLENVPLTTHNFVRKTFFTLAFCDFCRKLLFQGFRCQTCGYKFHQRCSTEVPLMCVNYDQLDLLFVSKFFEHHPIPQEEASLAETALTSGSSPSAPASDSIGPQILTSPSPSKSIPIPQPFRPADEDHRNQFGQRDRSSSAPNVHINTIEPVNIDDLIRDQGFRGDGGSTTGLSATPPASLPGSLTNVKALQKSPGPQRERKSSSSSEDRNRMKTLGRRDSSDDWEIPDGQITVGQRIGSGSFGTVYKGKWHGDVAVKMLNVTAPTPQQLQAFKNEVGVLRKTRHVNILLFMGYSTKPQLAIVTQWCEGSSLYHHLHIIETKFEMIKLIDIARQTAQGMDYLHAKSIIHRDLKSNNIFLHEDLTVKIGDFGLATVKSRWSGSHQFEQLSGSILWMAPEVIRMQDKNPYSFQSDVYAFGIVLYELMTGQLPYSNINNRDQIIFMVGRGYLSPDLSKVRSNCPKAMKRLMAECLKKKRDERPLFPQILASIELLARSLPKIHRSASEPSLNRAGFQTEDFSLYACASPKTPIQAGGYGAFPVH
Experimental: (§1) The kinase activities of the compounds of the invention were measured using the 33PanQinase® Assay Service provided by ProQinase GmbH, Freiburg, Germany. Details of the assay conditions are disclosed on the website of ProQinase (https://www.proqinase.com/products-services-biochemical-assay-services/kinase-assays). In brief, all kinase assays were performed in 96-well FlashPlates™ from PerkinElmer (Boston, MA, USA) in a 50 μl reaction volume. The reaction cocktail was pipetted in four steps in the following order: • 20 μl of assay buffer (standard buffer) • 5 μl of ATP solution (in H2O) • 5 μl of test compound (in 10% DMSO) • 20 μl enzyme/substrate mix
(§2) The reaction cocktails were incubated at 30° C. for 60 minutes. The reaction is stopped with 50 μl of 2% (v/v) H3PO4, plates were aspirated and washed two times with 200 μl 0.9% (w/v) NaCl. Incorporation of ^33Pi was determined with a microplate scintillation counter (Microbeta, Wallac).
(§3) All assays were performed with a BeckmanCoulter/SAGIAN™ Core System.
(§4) In case of single concentration assays, the potency of the test compound is expressed as % residual activity. […] The fitting method used was a least-squares fit.
(§5) Selectivity of test compounds against BRaf, JNK1 and MKK7, altogether denominated as off-targets was calculated by the ratio of IC50 (off-target)/IC50 (MKK4) and categorized as follows: […]

JNK1 = target: T2, JNK1 (Homo sapiens, UniProt P45983); experiment: 33PanQinase radiometric kinase assay, JNK1 (off-target); conditions: ratio IC50(off-target)/IC50(MKK4)
T2 construct: purchased ProQinase GmbH, Freiburg, Germany (assay service)
T2 sequence (P45983 whole entry): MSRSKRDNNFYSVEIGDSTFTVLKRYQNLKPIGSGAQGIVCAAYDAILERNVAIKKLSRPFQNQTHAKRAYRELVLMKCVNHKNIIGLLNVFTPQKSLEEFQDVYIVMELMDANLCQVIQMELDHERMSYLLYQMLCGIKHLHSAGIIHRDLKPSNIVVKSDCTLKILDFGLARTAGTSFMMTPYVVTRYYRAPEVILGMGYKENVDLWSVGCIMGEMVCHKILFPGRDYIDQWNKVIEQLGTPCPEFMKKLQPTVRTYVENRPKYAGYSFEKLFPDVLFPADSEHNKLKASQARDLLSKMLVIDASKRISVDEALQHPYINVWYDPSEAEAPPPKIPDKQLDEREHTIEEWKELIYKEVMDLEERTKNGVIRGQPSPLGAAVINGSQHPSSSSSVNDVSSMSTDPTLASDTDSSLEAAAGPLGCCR
Experimental: as §1, §2, §3, §4, §5

MKK4 = target: T3, MKK4 (Homo sapiens, UniProt P45985); experiment: 33PanQinase radiometric kinase assay, MKK4; conditions: category based on IC50-values; ATP at apparent Km; read-out: Potency MKK4
T3 construct: purchased ProQinase GmbH, Freiburg, Germany (assay service)
T3 sequence (P45985 1-399): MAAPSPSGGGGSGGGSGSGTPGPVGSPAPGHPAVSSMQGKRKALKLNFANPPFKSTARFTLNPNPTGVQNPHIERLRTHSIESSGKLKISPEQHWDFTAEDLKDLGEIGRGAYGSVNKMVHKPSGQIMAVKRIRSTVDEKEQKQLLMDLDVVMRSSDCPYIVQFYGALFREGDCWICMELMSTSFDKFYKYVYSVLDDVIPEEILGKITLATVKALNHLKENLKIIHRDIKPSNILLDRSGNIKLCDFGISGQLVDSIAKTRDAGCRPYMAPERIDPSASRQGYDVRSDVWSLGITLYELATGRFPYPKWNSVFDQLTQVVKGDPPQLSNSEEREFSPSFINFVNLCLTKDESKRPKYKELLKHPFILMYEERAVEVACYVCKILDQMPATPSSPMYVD
Experimental: as §1, §2, §3, §4

MKK7 = target: T4, MKK7 (Homo sapiens, UniProt O14733); experiment: 33PanQinase radiometric kinase assay, MKK7 (off-target); conditions: ratio IC50(off-target)/IC50(MKK4)
T4 construct: purchased ProQinase GmbH, Freiburg, Germany (assay service)
T4 sequence (O14733 1-419): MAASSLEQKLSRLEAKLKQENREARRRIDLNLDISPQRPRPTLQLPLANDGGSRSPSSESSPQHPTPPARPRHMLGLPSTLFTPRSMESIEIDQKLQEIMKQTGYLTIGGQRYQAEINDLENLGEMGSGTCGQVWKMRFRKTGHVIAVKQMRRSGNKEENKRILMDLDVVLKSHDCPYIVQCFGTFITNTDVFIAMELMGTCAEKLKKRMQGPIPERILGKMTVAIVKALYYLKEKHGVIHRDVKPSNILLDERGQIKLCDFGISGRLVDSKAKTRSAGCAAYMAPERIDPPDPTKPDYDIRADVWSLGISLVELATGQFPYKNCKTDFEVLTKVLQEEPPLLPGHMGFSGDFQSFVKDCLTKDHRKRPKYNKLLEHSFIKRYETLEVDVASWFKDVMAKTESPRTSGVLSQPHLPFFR
Experimental: as §1, §2, §3, §4, §5

Row | SMILES | Selectivity Braf (BRaf) | Selectivity JNK1 (JNK1) | IC50 (MKK4) [µM] | Selectivity MKK7 (MKK7)
1 | O=C(c1c(F)ccc(NS(=O)(=O)Cc2ccccc2)c1F)c1n[nH]c2ncc(-c3cnc(C4CC4)nc3)cc12 [Example 1, N-(3-(5-(2-cyclopropylpyrimidin-5-yl)-1H-pyrazolo[3,4-b]pyridine-3-carbonyl)-2,4-difluorophenyl)-1-phenylmethanesulfonamide] | + (10 ≥ IC50(off-target)/IC50(MKK4) > 3) | ◯ | 0.1 to 1 | +++ (IC50(off-target)/IC50(MKK4) > 100)
2 | CS(=O)(=O)Nc1c(F)ccc(C(=O)c2n[nH]c3ncc(-c4ccc(Cl)cc4)cc23)c1F [Example 2, N-(3-(5-(4-chlorophenyl)-1H-pyrazolo[3,4-b]pyridine-3-carbonyl)-2,6-difluorophenyl)methanesulfonamide] | +++ (IC50(off-target)/IC50(MKK4) > 100) | +++ (IC50(off-target)/IC50(MKK4) > 100) | < 0.1 | +++ (IC50(off-target)/IC50(MKK4) > 100)
3 | CCS(=O)(=O)Nc1c(F)ccc(C(=O)c2n[nH]c3ncc(-c4ccc(Cl)cc4)cc23)c1F [Example 3, N-(3-(5-(4-chlorophenyl)-1H-pyrazolo[3,4-b]pyridine-3-carbonyl)-2,6-difluorophenyl)ethanesulfonamide] | +++ (IC50(off-target)/IC50(MKK4) > 100) | ++ (100 ≥ IC50(off-target)/IC50(MKK4) > 10) | 0.1 to 1 | +++ (IC50(off-target)/IC50(MKK4) > 100)
4 | CCOC(=O)c1ccc(-c2cnc3[nH]nc(C(=O)c4ccc(F)c(NS(C)(=O)=O)c4F)c3c2)cc1 [Example 4, Ethyl 4-(3-(2,4-difluoro-3-(methylsulfonamido)benzoyl)-1H-pyrazolo[3,4-b]pyridin-5-yl)benzoate] | +++ (IC50(off-target)/IC50(MKK4) > 100) | ++ (100 ≥ IC50(off-target)/IC50(MKK4) > 10) | 0.1 to 1 | +++ (IC50(off-target)/IC50(MKK4) > 100)
5 | COC(=O)c1ccc(-c2cnc3[nH]nc(C(=O)c4ccc(F)c(NS(C)(=O)=O)c4F)c3c2)cn1 [Example 5, Methyl 5-(3-(2,4-difluoro-3-(methylsulfonamido)benzoyl)-1H-pyrazolo[3,4-b]pyridin-5-yl)picolinate] | +++ (IC50(off-target)/IC50(MKK4) > 100) | + (10 ≥ IC50(off-target)/IC50(MKK4) > 3) | 1 to 10 | ++ (100 ≥ IC50(off-target)/IC50(MKK4) > 10)
6 | CCCS(=O)(=O)Nc1c(F)ccc(C(=O)c2n[nH]c3ncc(-c4cncnc4)cc23)c1F [Example 6, N-(2,6-difluoro-3-(5-(pyrimidin-5-yl)-1H-pyrazolo[3,4-b]pyridine-3-carbonyl)phenyl)propane-1-sulfonamide] | +++ (IC50(off-target)/IC50(MKK4) > 100) | +++ (IC50(off-target)/IC50(MKK4) > 100) | 0.1 to 1 | +++ (IC50(off-target)/IC50(MKK4) > 100)
7 | CCCS(=O)(=O)Nc1c(F)ccc(C(=O)c2n[nH]c3ncc(-c4cnc(C)nc4)cc23)c1F [Example 7, N-(2,6-difluoro-3-(5-(2-methylpyrimidin-5-yl)-1H-pyrazolo[3,4-b]pyridine-3-carbonyl)phenyl)propane-1-sulfonamide] | +++ (IC50(off-target)/IC50(MKK4) > 100) | +++ (IC50(off-target)/IC50(MKK4) > 100) | < 0.1 | +++ (IC50(off-target)/IC50(MKK4) > 100)
8 | CCCS(=O)(=O)Nc1c(F)ccc(C(=O)c2n[nH]c3ncc(-c4cnc(C(=O)O)nc4)cc23)c1F [Example 8, 5-(3-(2,4-difluoro-3-(propylsulfonamido)benzoyl)-1H-pyrazolo[3,4-b]pyridin-5-yl)pyrimidine-2-carboxylic acid] | +++ (IC50(off-target)/IC50(MKK4) > 100) | +++ (IC50(off-target)/IC50(MKK4) > 100) | < 0.1 | ++ (100 ≥ IC50(off-target)/IC50(MKK4) > 10)
9 | CCCS(=O)(=O)Nc1c(F)ccc(C(=O)c2n[nH]c3ncc(-c4cnc(C#N)nc4)cc23)c1F [Example 9, N-(3-(5-(2-cyanopyrimidin-5-yl)-1H-pyrazolo[3,4-b]pyridine-3-carbonyl)-2,6-difluorophenyl)propane-1-sulfonamide] | ++ (100 ≥ IC50(off-target)/IC50(MKK4) > 10) | ++ (100 ≥ IC50(off-target)/IC50(MKK4) > 10) | 0.1 to 1 | ++ (100 ≥ IC50(off-target)/IC50(MKK4) > 10)
10 | CCCS(=O)(=O)Nc1c(F)ccc(C(=O)c2n[nH]c3ncc(-c4cnc(-c5nnn[nH]5)nc4)cc23)c1F [Example 10, N-(3-(5-(2-(1H-tetrazol-5-yl)pyrimidin-5-yl)-1H-pyrazolo[3,4-b]pyridine-3-carbonyl)-2,6-difluorophenyl)propane-1-sulfonamide] | +++ (IC50(off-target)/IC50(MKK4) > 100) | +++ (IC50(off-target)/IC50(MKK4) > 100) | < 0.1 | ++ (100 ≥ IC50(off-target)/IC50(MKK4) > 10)
11 | CCCS(=O)(=O)Nc1c(F)ccc(C(=O)c2n[nH]c3ncc(-c4cnc(Cl)nc4)cc23)c1F [Example 12, N-(3-(5-(2-chloropyrimidin-5-yl)-1H-pyrazolo[3,4-b]pyridine-3-carbonyl)-2,6-difluorophenyl)propane-1-sulfonamide] | +++ (IC50(off-target)/IC50(MKK4) > 100) | +++ (IC50(off-target)/IC50(MKK4) > 100) | 0.1 to 1 | +++ (IC50(off-target)/IC50(MKK4) > 100)
12 | CCCS(=O)(=O)Nc1c(F)ccc(C(=O)c2n[nH]c3ncc(-c4cnc(O)nc4)cc23)c1F [Example 16, N-(2,6-difluoro-3-(5-(2-hydroxypyrimidin-5-yl)-1H-pyrazolo[3,4-b]pyridine-3-carbonyl)phenyl)propane-1-sulfonamide] | +++ (IC50(off-target)/IC50(MKK4) > 100) | +++ (IC50(off-target)/IC50(MKK4) > 100) | < 0.1 | +++ (IC50(off-target)/IC50(MKK4) > 100)
13 | CCCS(=O)(=O)Nc1c(F)ccc(C(=O)c2n[nH]c3ncc(-c4ccncc4Cl)cc23)c1F [Example 17, N-(3-(5-(3-chloropyridin-4-yl)-1H-pyrazolo[3,4-b]pyridine-3-carbonyl)-2,6-difluorophenyl)propane-1-sulfonamide] | +++ (IC50(off-target)/IC50(MKK4) > 100) | +++ (IC50(off-target)/IC50(MKK4) > 100) | < 0.1 | +++ (IC50(off-target)/IC50(MKK4) > 100)
